Measurements reported in the supplement of paper PMC10627819.

Columns and labels:
Experiment in all cases: fitness (endpoint OD595 vs no drug) (fraction); higher = more growth
S. aureus Newman = tested on: S. aureus Newman
Summary of the method: (§1)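 In 384-well plates at 37 °C, cultures began at OD595 0.01 in 30 µl, with 55 µl used for S. pneumoniae. OD595 readings every 30 min for 14 h were corrected by the first reading. Fitness divides the stationary-phase transition optical density by the robust mean of no-drug control wells. The result is capped at 1.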

S. pneumoniae D39V = tested on: S. pneumoniae D39V
Summary of the method: as §1

S. aureus DSM 20231 = tested on: S. aureus DSM 20231
Summary of the method: as §1
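Note: OD595 on entry to stationary phase over no-drug wells; at most 1.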

CCCCCCCCCC(=O)N[C@@H](Cc1c[nH]c2ccccc12)C(=O)N[C@H](CC(N)=O)C(=O)N[C@@H](CC(=O)O)C(=O)N[C@@H]1C(=O)NCC(=O)N[C@@H](CCCN)C(=O)N[C@@H](CC(=O)O)C(=O)N[C@H](C)C(=O)N[C@@H](CC(=O)O)C(=O)NCC(=O)N[C@H](CO)C(=O)N[C@@H]([C@H](C)CC(=O)O)C(=O)N[C@@H](CC(=O)c2ccccc2N)C(=O)O[C@@H]1C [Daptomycin] + CC1(C)S[C@@H]2[C@H](NC(=O)Cc3ccccc3)C(=O)N2[C@H]1C(=O)O [Penicillin G]
fitness, S. aureus Newman
Conditions | first compound 0.125 µg/mL | first compound 0.25 µg/mL | first compound 0.5 µg/mL
partner 0.0195 µg/mL | 0.926 | 0.958 | 0.925
partner 0.039 µg/mL | 0.939 | 0.942 | 0.972
partner 0.078 µg/mL | 0.961 | 0.957 | 0.915

CC1(C)S[C@@H]2[C@H](NC(=O)[C@H](N)c3ccc(O)cc3)C(=O)N2[C@H]1C(=O)O [Amoxicillin] + CC1(C)S[C@@H]2[C@H](NC(=O)Cc3ccccc3)C(=O)N2[C@H]1C(=O)O [Penicillin G]
fitness, S. aureus Newman
Conditions | first compound 0.0625 µg/mL | first compound 0.125 µg/mL | first compound 0.25 µg/mL
partner 0.0195 µg/mL | 0.845 | 0.855 | –
partner 0.039 µg/mL | 0.878 | 0.833 | 0.797
partner 0.078 µg/mL | 0.796 | 0.801 | 0.807

C[C@H]1COc2c(N3CCN(C)CC3)c(F)cc3c(=O)c(C(=O)O)cn1c23 [Levofloxacin] + CO[C@@]12[C@H](COC(N)=O)C3=C(C(=O)C(C)=C(N)C3=O)N1C[C@@H]1N[C@@H]12 [Mitomycin C]
fitness, S. pneumoniae D39V
Conditions | first compound 0.1725 µg/mL | first compound 0.2 µg/mL | first compound 0.345 µg/mL | first compound 0.4 µg/mL | first compound 0.69 µg/mL | first compound 0.8 µg/mL
partner 0.001075 µg/mL | – | 0.883 | – | 0.777 | – | 0.422
partner 0.002 µg/mL | 0.817 | – | 0.699 | – | 0.404 | –
partner 0.00215 µg/mL | – | 0.871 | – | 0.769 | – | 0.362
partner 0.004 µg/mL | 0.782 | – | 0.687 | – | 0.355 | –
partner 0.0043 µg/mL | – | 0.78 | – | 0.699 | – | 0.331
partner 0.008 µg/mL | 0.694 | – | 0.595 | – | 0.387 | –

CCCCCCCCCC(=O)N[C@@H](Cc1c[nH]c2ccccc12)C(=O)N[C@H](CC(N)=O)C(=O)N[C@@H](CC(=O)O)C(=O)N[C@@H]1C(=O)NCC(=O)N[C@@H](CCCN)C(=O)N[C@@H](CC(=O)O)C(=O)N[C@H](C)C(=O)N[C@@H](CC(=O)O)C(=O)NCC(=O)N[C@H](CO)C(=O)N[C@@H]([C@H](C)CC(=O)O)C(=O)N[C@@H](CC(=O)c2ccccc2N)C(=O)O[C@@H]1C [Daptomycin] + CO[C@@]12[C@H](COC(N)=O)C3=C(C(=O)C(C)=C(N)C3=O)N1C[C@@H]1N[C@@H]12 [Mitomycin C]
fitness
Conditions | first compound 0.125 µg/mL | first compound 0.25 µg/mL | first compound 0.5 µg/mL | first compound 1 µg/mL | first compound 2 µg/mL | first compound 4 µg/mL
S. aureus DSM 20231, partner 0.0156 µg/mL | – | – | 0.773 | 0.809 | 0.769 | –
S. aureus DSM 20231, partner 0.0312 µg/mL | – | – | 0.791 | 0.778 | 0.744 | –
S. aureus DSM 20231, partner 0.0625 µg/mL | – | – | 0.648 | 0.6 | 0.595 | –
S. aureus Newman, partner 0.0156 µg/mL | 0.775 | 0.778 | 0.773 | – | – | –
S. aureus Newman, partner 0.0312 µg/mL | 0.702 | 0.692 | 0.688 | – | – | –
S. aureus Newman, partner 0.0625 µg/mL | 0.57 | 0.54 | 0.545 | – | – | –
S. pneumoniae D39V, partner 0.001075 µg/mL | – | – | – | 0.897 | 0.905 | 0.94
S. pneumoniae D39V, partner 0.002 µg/mL | – | – | – | 0.771 | 0.776 | 0.739
S. pneumoniae D39V, partner 0.00215 µg/mL | – | – | – | 0.849 | 0.841 | 0.842
S. pneumoniae D39V, partner 0.004 µg/mL | – | – | – | 0.617 | 0.558 | 0.504
S. pneumoniae D39V, partner 0.0043 µg/mL | – | – | – | 0.719 | 0.723 | 0.723
S. pneumoniae D39V, partner 0.008 µg/mL | – | – | – | 0.285 | 0.307 | 0.242

CC1(C)S[C@@H]2[C@H](NC(=O)[C@H](N)c3ccc(O)cc3)C(=O)N2[C@H]1C(=O)O [Amoxicillin] + CN(C)[C@@H]1C(O)=C(C(N)=O)C(=O)[C@@]2(O)C(O)=C3C(=O)c4c(O)ccc(Cl)c4[C@@](C)(O)[C@H]3C[C@@H]12 [Chlortetracycline]
fitness
Conditions | partner 0.012 µg/mL | partner 0.024 µg/mL | partner 0.048 µg/mL | partner 0.375 µg/mL | partner 0.75 µg/mL | partner 1.5 µg/mL
S. aureus DSM 20231, first compound 0.0625 µg/mL | 0.421 | 0.169 | 0.0806 | – | – | –
S. aureus DSM 20231, first compound 0.125 µg/mL | 0.236 | 0.127 | 0.0782 | – | – | –
S. aureus DSM 20231, first compound 0.25 µg/mL | 0.0422 | 0.0199 | 0.0289 | – | – | –
S. aureus DSM 20231, first compound 0.5 µg/mL | 0.0037 | 0.0085 | 0.0227 | – | – | –
S. pneumoniae D39V, first compound 0.0008 µg/mL | – | – | – | 0.0877 | 0.0924 | 0.0983
S. pneumoniae D39V, first compound 0.0015 µg/mL | 0.845 | 0.854 | 0.887 | 0.119 | 0.0947 | 0.123
S. pneumoniae D39V, first compound 0.003 µg/mL | 0.808 | 0.804 | 0.85 | 0.0652 | 0.045 | 0.0882

one replicate
Conditions | fitness
S. aureus DSM 20231, first compound 0.125 µg/mL, partner 0.006 µg/mL | 0.402
S. aureus DSM 20231, first compound 0.25 µg/mL, partner 0.006 µg/mL | 0.052
S. aureus DSM 20231, first compound 0.5 µg/mL, partner 0.006 µg/mL | 0
S. pneumoniae D39V, first compound 0.0008 µg/mL, partner 0.012 µg/mL | 0.904
S. pneumoniae D39V, first compound 0.0008 µg/mL, partner 0.024 µg/mL | 0.844
S. pneumoniae D39V, first compound 0.0008 µg/mL, partner 0.048 µg/mL | 0.853
S. pneumoniae D39V, first compound 0.006 µg/mL, partner 0.012 µg/mL | 0.482
S. pneumoniae D39V, first compound 0.006 µg/mL, partner 0.024 µg/mL | 0.45
S. pneumoniae D39V, first compound 0.006 µg/mL, partner 0.048 µg/mL | 0.378

CC1(C)S[C@@H]2[C@H](NC(=O)[C@H](N)c3ccc(O)cc3)C(=O)N2[C@H]1C(=O)O [Amoxicillin] + O=C(O)[C@H]1/C(=C/CO)O[C@@H]2CC(=O)N21 [Clavulanic acid]
fitness, S. pneumoniae D39V
Conditions | first compound 0.0008 µg/mL | first compound 0.0015 µg/mL | first compound 0.003 µg/mL
partner 0.5 µg/mL | 0.913 | 0.945 | 0.914
partner 1 µg/mL | 0.886 | 0.87 | 0.852
partner 2 µg/mL | 0.812 | 0.819 | 0.713

fitness, one replicate
Conditions | partner 0.03125 µg/mL | partner 0.0625 µg/mL | partner 0.125 µg/mL | partner 0.5 µg/mL | partner 1 µg/mL | partner 2 µg/mL
S. aureus Newman, first compound 0.0625 µg/mL | 0.895 | 0.816 | 0.768 | – | – | –
S. aureus Newman, first compound 0.125 µg/mL | 0.831 | 0.809 | 0.639 | – | – | –
S. aureus Newman, first compound 0.25 µg/mL | 0.717 | 0.628 | 0.606 | – | – | –
S. pneumoniae D39V, first compound 0.006 µg/mL | – | – | – | 0.391 | 0.315 | 0.242

CC1(C)S[C@@H]2[C@H](NC(=O)[C@H](N)c3ccc(O)cc3)C(=O)N2[C@H]1C(=O)O [Amoxicillin] + N[C@@H]1CONC1=O [Cycloserine D]
fitness
Conditions | first compound 0.0625 µg/mL | first compound 0.125 µg/mL | first compound 0.25 µg/mL | first compound 0.5 µg/mL
S. aureus DSM 20231, partner 0.375 µg/mL | 0.579 | 0.382 | 0.0345 | 0.0039
S. aureus DSM 20231, partner 0.75 µg/mL | 0.562 | 0.368 | 0.0204 | 0.0079
S. aureus DSM 20231, partner 1.5 µg/mL | 0.554 | – | 0.0264 | 0.0072
S. aureus Newman, partner 0.375 µg/mL | 0.889 | 0.875 | 0.811 | –
S. aureus Newman, partner 0.75 µg/mL | 0.879 | 0.91 | 0.821 | –
S. aureus Newman, partner 1.5 µg/mL | 0.861 | 0.851 | 0.8 | –

CCCCCCCCCC(=O)N[C@@H](Cc1c[nH]c2ccccc12)C(=O)N[C@H](CC(N)=O)C(=O)N[C@@H](CC(=O)O)C(=O)N[C@@H]1C(=O)NCC(=O)N[C@@H](CCCN)C(=O)N[C@@H](CC(=O)O)C(=O)N[C@H](C)C(=O)N[C@@H](CC(=O)O)C(=O)NCC(=O)N[C@H](CO)C(=O)N[C@@H]([C@H](C)CC(=O)O)C(=O)N[C@@H](CC(=O)c2ccccc2N)C(=O)O[C@@H]1C [Daptomycin] + CO/N=C(\C(=O)N[C@@H]1C(=O)N2C(C(=O)[O-])=C(C[N+]3(C)CCCC3)CS[C@H]12)c1csc(N)n1 [Cefepime]
fitness
Conditions | first compound 0.125 µg/mL | first compound 0.25 µg/mL | first compound 0.5 µg/mL | first compound 1 µg/mL | first compound 2 µg/mL | first compound 4 µg/mL
S. aureus DSM 20231, partner 0.125 µg/mL | – | – | 0.846 | 0.938 | 0.934 | –
S. aureus DSM 20231, partner 0.25 µg/mL | – | – | 0.88 | 0.89 | 0.887 | –
S. aureus DSM 20231, partner 0.5 µg/mL | – | – | 0.869 | 0.877 | 0.844 | –
S. aureus Newman, partner 0.125 µg/mL | 0.935 | 0.941 | 0.967 | – | – | –
S. aureus Newman, partner 0.25 µg/mL | 0.854 | 0.874 | 0.874 | – | – | –
S. aureus Newman, partner 0.5 µg/mL | 0.8 | 0.797 | 0.799 | – | – | –
S. pneumoniae D39V, partner 0.007 µg/mL | – | – | – | 0.917 | 0.942 | 0.476
S. pneumoniae D39V, partner 0.0078 µg/mL | – | – | – | ≥ 1 | ≥ 1 | 0.964
S. pneumoniae D39V, partner 0.014 µg/mL | – | – | – | 0.887 | 0.938 | 0.57
S. pneumoniae D39V, partner 0.0155 µg/mL | – | – | – | 0.982 | ≥ 1 | 0.965
S. pneumoniae D39V, partner 0.028 µg/mL | – | – | – | 0.813 | 0.82 | 0.48
S. pneumoniae D39V, partner 0.031 µg/mL | – | – | – | 0.584 | 0.606 | 0.599
